Assay results published in PMC12003248, “ERCC6L2 mitigates replication stress and promotes centromere stability” (Cell Reports, 2023).
Where no end group is shown, it is not given here.

Assays:
Polα = details: cited from earlier work
Excerpt: Because centromeres impose specific challenges for DNA replication machinery, we next sought to address the impact of ERCC6L2 deficiency on the progression of DNA replication. […] However, further analyses, based on EdU incorporation over longer time frames, highlighted differences between the two cell lines. Loss of ERCC6L2 reduced efficiency of EdU incorporation in unperturbed c ...

His-tagged human PCNA [1] = assay: PCNA pull-down with biotinylated peptides; assay type: binding; details: biotinylated peptide on streptavidin beads; purified His-tagged PCNA, 1 h at 4°C; 50 mM Tris-HCl pH 8, 150 mM NaCl, 1 mM DTT, 0.2% Triton X-; anti-PCNA western blot
Excerpt: (§1) Figure 4 ERCC6L2 contains an atypical PCNA-binding motif (A) ERCC6L2 colocalizes with PCNA at CENP-C-negative foci. U2OS cells transfected with YFP-ERCC6L2 were stained for CENP-C and PCNA after pre-extraction of soluble proteins. ERCC6L2-and PCNA-positive, but CENP-C negative foci (red arrows) are marked in zoomed images. (B) ERCC6L2 colocalizes with RPA at CENP-C-negative foci. U2OS cells transfected with YFP-ERCC6L2 were stained for CENP-C and RPA. ERCC6L2- and RPA-positive, but CENP-C-negative foci (red arrows) are marked in zoomed images. (C) Colocalization of the C-terminal ERCC6L2^701−1561 fragment with endogenous PCNA. (D) PCNA pull-down with biotinylated peptides. Biotinylated PIP-box and APIM motif peptides were bound to streptavidin beads and incubated with recombinant PCNA. Interactions were assayed by western blotting with PCNA antibody. Wild-type ZRANB3 PIP-box peptide (ZRANB3 PIP) was used as a positive control. Mutant ZRANB3 PIP-box peptide (Q519A, F525A, and F526A, ZRANB3 PIP^∗) served as a negative control. […] Interactions were assessed by western blotting against PCNA (shown on the right). […]
Custom synthetic biotinylated peptides were synthetised by Genscript and dissolved in 50 mM Tris-HCl pH 8, 150 mM NaCl. […] Finally, the beads were boiled in the SDS-PAGE loading buffer, and analyzed by anti-PCNA Western blotting (1:1000 dilution).

endogenous PCNA [2] = assay: Colocalization of YFP-ERCC6L2 constructs with endogenous PCNA; assay type: cell-based, human; details: YFP-tagged, U2OS cells
Excerpt: as §1
U2OS cells (ATCC) were grown in 24 well plates. […] Samples were analyzed by confocal microscopy using Olympus FV1200 or Zeiss 880 Airyscan microscopes, or using EVOS M7000 Imaging System. […]

laser-induced DNA breaks = assay: Recruitment to laser-induced DNA breaks; assay type: cell-based, human; details: U2OS cells, 405 nm laser, 10 μM BrdU 16 h
Method: U2OS cells were grown in glass-bottomed 24 well plates and transfected with YFP-ERCC6L2 constructs using Lipofectamine 2000 (Life Technologies). Transfected cells were then incubated with 10 μM BrdU for 16 h at 37°C. Laser microirradiation was carried out on an Olympus FV1200 confocal microscope equipped with an environmental chamber. Localised DNA damage was induced in cells showing YFP-tagged protein expression using a 405 nm laser. Recruitment of the proteins was monitored by live cell imaging at 488 nm.

His-tagged human PCNA [3] = assay: PCNA pull-down with GST-tagged fragment; assay type: binding; details: GST-tagged fragment on GST beads, 1 h at 4°C, 50 mM Tris-HCl pH 8, 150 mM NaCl, 1 mM DTT, 0.2% Triton X-, western blot
endogenous PCNA [4] = assay: Immunoprecipitation of Strep-tagged ERCC6L2 fragment, endogenous PCNA; assay type: binding, human; details: 293T cells, Twin-Strep construct, StrepTactin beads, immunoblot
[5] = test system: single-stranded DNA derived from α-satellite DNA sequence; assay: EMSA, single-stranded DNA; assay type: binding; details: His-tagged fragment; 2.5 nM labeled substrate; 30 min, room temperature; 50 mM Tris-HCl pH 7.5; 11, 22, 44, 88, 176 nM (legend Figure 1H)
[6] = test system: double-stranded DNA derived from α-satellite DNA sequence; assay: EMSA, double-stranded DNA; assay type: binding; details: His-tagged fragment; 2.5 nM labeled substrate; 30 min, room temperature; 50 mM Tris-HCl pH 7.5; 11, 22, 44, 88, 176 nM (legend Figure 1H)

O=C(O)c1ccc2cc(-c3ccc(O)c(C45CC6CC(CC(C6)C4)C5)c3)ccc2c1 [CD437]
uncoupling of DNA synthesis (Polα): causes uncoupling of leading and lagging strand DNA synthesis

ERCC6L2^790−811 peptide: atypical ERCC6L2 peptides (residues 790–811) containing the WT sequence (LLQCGFSKLLETKCKAVEDSDG; cysteine pairing not given here; also: biotinylated, position not given here; UniProt Q5T890 790-811, looked up, fragment)
interaction with PCNA, pull-down (His-tagged human PCNA [1]): comparable to the one observed with the classical PIP-box peptide from ZRANB3

full-length ERCC6L2: full-length human ERCC6L2, YFP-tagged
colocalization with endogenous PCNA (endogenous PCNA [2]): largely absent from PCNA foci in S-phase cells
mobilization to laser-induced DNA breaks (laser-induced DNA breaks): efficient mobilization

B1: GST-tagged ERCC6L2^753−819: GST-tagged ERCC6L2 fragment (residues 753–819) expressed in E. coli (protein)
chain: AAEPLAKEACDLCSDFSDEEPVGATGIKTAKNKAPDSSKASSSPGQLTLLQCGFSKLLETKCKAVED
modifications: left off: GST, end not stated, kept
notes: GST-tagged ERCC6L2 fragment (residues 753–819) expressed in E. coli
interaction with PCNA, GST pull-down (His-tagged human PCNA [3]): The interaction with PCNA could be demonstrated

B2: ERCC6L2^701−1053: Strep-tagged ERCC6L2 fragment (protein)
chain: QGSCLTKDILEREGQVEAGIMTATTWLKEGPPAHKLEMPRQPDCQECRGTEQAAEPLAKEACDLCSDFSDEEPVGATGIKTAKNKAPDSSKASSSPGQLTLLQCGFSKLLETKCKAVEDSDGNTASDDESSDEQPTCLSTEAKDAGCEKNQDSLGTSKHQKLDNILNPKEKHIFYKSEKILEQNISSKSDEKKIKNTDKHCILQNVTESEDSDVICPTQYTTERFPDNSIRFKPPLEGSEDSETEHTVKTRNNDNSRNTDDKRNGIISKKLSPENTTLKSILKRKGTSDISDESDDIEISSKSRVRKRASSLRFKRIKETKKELHNSPKTMNKTNQVYAANEDHNSQFIDDYS
modifications: left off: Strep tag, end not stated, kept
notes: Strep-tagged ERCC6L2 fragment
endogenous PCNA in immunocomplexes (endogenous PCNA [4]): detected

B3: ERCC6L2^1053−1247: purified His-tagged ERCC6L2 fragment containing the VIGS motif (protein, UniProt Q5T890 1053-1247, looked up, fragment)
chain: FSFSKQSHRPRTIRDRTSFSSKLPSHNKKNSTFIPRKPMKCSNEKVVNQEQSYESMDKFLDGVQEVAYIHSNQNVIGSSKAENHMSRWAAHDVFELKQFSQLPANIAVCSSKTYKEKVDADTLPHTKKGQQPSEGSISLPLYISNPVNQKKKKVYHTNQTTFIIGETPKGIRRKQFEEMASYFNSSSVNEFAKHI
modifications: His tag
notes: purified His-tagged ERCC6L2 fragment containing the VIGS motif
formation of nucleoprotein complexes with single-stranded DNA (EMSA) [5]: formed stable nucleoprotein complexes
formation of nucleoprotein complexes with double-stranded DNA (EMSA) [6]: formed stable nucleoprotein complexes
